Assay results: patent US9757375B2, “Compounds that inhibit human DNA ligases and methods of treating cancer” (University of Maryland, Baltimore, priority 2007, dated 2017)

Key:
hLigIIIβ = target: T1, hLigIIIβ (Homo sapiens, UniProt P49916); experiment: Radioactive gel-based DNA ligation assay; format: biochemical; settings: grades ±, Ø (key not given)
T1 sequence (P49916 1-862 isoform P49916-4): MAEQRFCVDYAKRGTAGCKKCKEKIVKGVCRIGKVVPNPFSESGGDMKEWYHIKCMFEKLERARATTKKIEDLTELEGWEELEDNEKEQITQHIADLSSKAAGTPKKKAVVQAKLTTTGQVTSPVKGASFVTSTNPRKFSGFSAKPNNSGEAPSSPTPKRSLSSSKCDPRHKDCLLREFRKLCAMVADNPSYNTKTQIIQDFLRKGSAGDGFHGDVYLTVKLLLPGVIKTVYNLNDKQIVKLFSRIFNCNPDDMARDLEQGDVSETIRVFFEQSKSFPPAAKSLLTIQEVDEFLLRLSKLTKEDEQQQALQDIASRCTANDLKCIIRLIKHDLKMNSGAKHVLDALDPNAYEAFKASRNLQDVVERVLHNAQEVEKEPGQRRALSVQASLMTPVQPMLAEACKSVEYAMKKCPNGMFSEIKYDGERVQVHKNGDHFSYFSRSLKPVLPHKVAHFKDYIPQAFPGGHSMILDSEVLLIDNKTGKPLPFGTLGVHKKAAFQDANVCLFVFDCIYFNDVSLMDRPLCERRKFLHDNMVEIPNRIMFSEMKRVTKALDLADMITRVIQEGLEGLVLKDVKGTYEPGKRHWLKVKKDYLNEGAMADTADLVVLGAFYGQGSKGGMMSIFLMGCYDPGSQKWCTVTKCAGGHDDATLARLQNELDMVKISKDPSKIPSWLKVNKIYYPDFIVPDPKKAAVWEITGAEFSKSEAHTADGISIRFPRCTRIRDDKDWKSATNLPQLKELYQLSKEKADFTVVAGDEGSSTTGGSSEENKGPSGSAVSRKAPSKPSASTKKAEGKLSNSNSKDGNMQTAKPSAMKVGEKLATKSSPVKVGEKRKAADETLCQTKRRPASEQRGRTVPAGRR

HCT116 cells [1] = experiment: Colony forming (survival) assay; format: cell-based, human; settings: for potentiation of killing by ionizing radiation: HCT116, 2 gray
Description: (§1) For survival assays, cells were plated in 6 well plates and grown either in the absence or presence of ligase inhibitors. Where indicated, either MMS (0-50 μM) was added to the medium or the cells were irradiated in a Cs-137 irradiator (0-2.5 Gy). After two weeks, colonies were stained with crystal violet (Sigma) and then counted.
(§2) To confirm that the DNA ligase inhibitors directly kill cells and potentiate cell killing by DNA damaging agents, we performed colony forming assays.
(§3) Different concentrations of Compound 184 were added to asynchronous subconfluent populations of HCT116, MCF7 and MCF10A cells. Colonies were counted after two weeks. (FIG. 6A).
(§4) Different concentrations of Compound 151 were added to asynchronous subconfluent populations of HCT116 and MCF10A cells in the absence or presence of MMS (50 μM). Colonies were counted after two weeks. (FIG. 6B).
(§5) Different concentrations of Compound 189 were added to asynchronous subconfluent populations of HCT116 and MCF10A cells. After 1 hour, cultures were irradiated with 2 gray of ionizing radiation. Colonies were counted after two weeks. (FIG. 6C).
(§6) Different concentrations of Compound 67 were added to asynchronous subconfluent populations of HCT116, MCF7 and MCF10A cells. After 1 hour, cultures were irradiated with 2 gray of ionizing radiation. Different concentrations of Compound 67 were added to asynchronous subconfluent populations of HCT116 and MCF10A cells in the absence or presence of MMS (50 μM). Colonies were counted after two weeks. (FIG. 6D).

MCF10A cells = experiment: Colony forming (survival) assay; format: cell-based, human; settings: colonies after two weeks; for effect on MMS cytotoxicity: MMS 50 μM
Description: as §1, §2, §3, §4, §5, §6

DNA = DNA binding by displacement of ethidium bromide from DNA; settings: EtBr replacement assay; 192 at 0, 50, 100 μM
Description: Candidate ligase inhibitors identified by CADD were assayed for their ability to inhibit hLigI and T4 DNA ligase using a high-throughput, fluorescence energy transfer-based DNA joining assay (22). Duplicate reactions (30 μL) containing 10 pmol of nicked DNA substrate and either 0.25 pmol of hLigI or 10 units of T4 DNA ligase were incubated in the presence or absence of 100 μmol/L of the putative inhibitor. DNA binding by the candidate DNA ligase inhibitors was measured by displacement of ethidium bromide from DNA as previously described (30).

T4 DNA ligase = target: T2, T4 DNA ligase (Enterobacteria phage T4, UniProt P00970); experiment: Radioactive gel-based DNA ligation assay; format: biochemical, bacteriophage T4; settings: FIG. 2B
T2 construct: purchased NEB
T2 sequence (P00970 1-487): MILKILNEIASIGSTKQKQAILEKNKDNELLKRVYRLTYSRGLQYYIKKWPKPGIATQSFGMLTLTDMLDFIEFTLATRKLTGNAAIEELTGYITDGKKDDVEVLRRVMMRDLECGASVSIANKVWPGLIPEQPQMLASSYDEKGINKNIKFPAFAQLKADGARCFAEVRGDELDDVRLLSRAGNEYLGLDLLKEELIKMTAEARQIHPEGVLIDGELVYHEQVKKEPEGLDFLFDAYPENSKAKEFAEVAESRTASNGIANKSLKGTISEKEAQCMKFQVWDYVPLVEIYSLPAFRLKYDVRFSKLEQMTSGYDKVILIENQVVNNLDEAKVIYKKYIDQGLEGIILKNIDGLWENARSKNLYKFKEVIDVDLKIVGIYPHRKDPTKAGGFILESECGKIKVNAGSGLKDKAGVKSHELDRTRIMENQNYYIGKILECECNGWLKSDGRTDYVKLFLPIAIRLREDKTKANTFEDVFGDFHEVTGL
Description: A radioactive gel-based DNA ligation assay was performed as previously described (22). A 25-mer (5′-CGCCAGGGTTTTCCCAGTCACGACC-3′), and a 5′-[^32P] end-labeled 18-mer (5′-GTA AAA CGA CGG CCA GTG-3′) were annealed to a complementary 44-mer oligonucleotide, generating a linear duplex with a central nick. DNA joining reactions (30 μL) containing 0.5 pmol of labeled DNA substrate, and hLigI (0.02 pmol), hLigIIIβ (0.02 pmol), hLigIV/XRCC4 (0.1 pmol), or T4 DNA ligase (0.02 pmol) in ligation buffer were incubated in the absence or presence of ligase inhibitors at 25° C. for 30 min.
The effect of Compounds 67, 82 and 189 on DNA joining by human DNA ligases I, III and IV and T4 DNA ligase was determined. The IC50 values determined for Compounds 67, 82 and 189 using the fluorescence-based DNA joining assay (22) are shown for each of the DNA ligases. The effect of Compounds 67, 82 and 189 on DNA joining by human DNA ligases I, III and IV and T4 DNA ligase was determined using the radioactive gel-based assay (24). Representative gels of DNA ligation assays. The results of three independent experiments are shown graphically.

HCT116 cells [2] = experiment: Screen for potentiation of DNA damaging agents (MMS, camptothecin, cis-platinum, 3 aminobenzamide, ionizing radiation); format: cell-based, human; settings: with 2 Gy ionizing radiation, tick mark only

Row | Structure (SMILES) | % activity Inhibition hLigIII gel (hLigIIIβ) | effect on MMS cytotoxicity (MCF10A cells) | DNA binding of compound (effect on DNA binding by ethidium bromide) (DNA) | inhibition of DNA joining by T4 DNA ligase (T4 DNA ligase) | % growth inhibition HCT116 [2 Gy] 5-15 uM (HCT116 cells [2]) | other results
1 | C/C(O)=C1/C(=O)N(c2nc3ccccc3s2)N=C1c1ccccc1 [Compound 43] | Ø |  |  |  |  | 
2 | Cc1c(Br)cc(NCC(=O)N/N=C\c2cc([N+](=O)[O-])ccc2O)cc1Br [Compound 67] |  | no significant effect | had no effect on DNA binding by ethidium bromide | not significantly inhibited |  | potentiation of killing by ionizing radiation (HCT116 cells [1]; colonies after two weeks): potentiates; effect on ionizing radiation-induced cytotoxicity (MCF10A cells; 2 gray): no significant effect
3 | O=c1[nH]ncc(N/N=C\c2ccc(O)c([N+](=O)[O-])c2)c1Cl [Compound 82] |  |  | had no effect on DNA binding by ethidium bromide | not significantly inhibited |  | 
4 | O=C(Cn1cnc([N+](=O)[O-])n1)N/N=C/c1ccc(O)cc1O [Compound 151] | Ø | no significant effect |  |  | ✓ | potentiation of killing by MMS (HCT116 cells [1]; HCT116, MMS 50 μM, colonies after two weeks): markedly potentiates
5 | CS(=O)(=O)NNC(=O)C(=O)NNc1ccccc1 [Compound 184] | Ø |  |  |  | ✓ | cell killing (colony formation) (HCT116 cells [1]; HCT116, compound alone, compared with MCF10A, FIG. 6A): more effective at killing; cell killing (colony formation) (MCF10A cells; compound alone, FIG. 6A): kills
6 | Nc1nc(S)nc(O)c1/N=C/c1ccccc1 [Compound 189] |  | no significant effect | had no effect on DNA binding by ethidium bromide | not significantly inhibited |  | potentiation of killing by ionizing radiation (HCT116 cells [1]; colonies after two weeks): markedly potentiates
7 | COc1ccc(-c2cnc3c(O)nc(O)nc3n2)cc1 [Compound 190] | Ø |  |  |  |  | 
8 | O=C(c1ccc(O)cc1)c1ccccc1O [Compound 200] |  |  |  |  | ✓ | 
